Measured values: PMC5424641 (Biomolecules & Therapeutics, 2017)
Where a name gives a salt, the structure may show the parent alone. Read-outs that look alike come from different tables or passages of the source.

Legend:
[1] = target: T1, urotensin II receptor (hUT) (Homo sapiens, UniProt Q9UKP6); assay: radioligand binding assay
T1 sequence (Q9UKP6 1-389): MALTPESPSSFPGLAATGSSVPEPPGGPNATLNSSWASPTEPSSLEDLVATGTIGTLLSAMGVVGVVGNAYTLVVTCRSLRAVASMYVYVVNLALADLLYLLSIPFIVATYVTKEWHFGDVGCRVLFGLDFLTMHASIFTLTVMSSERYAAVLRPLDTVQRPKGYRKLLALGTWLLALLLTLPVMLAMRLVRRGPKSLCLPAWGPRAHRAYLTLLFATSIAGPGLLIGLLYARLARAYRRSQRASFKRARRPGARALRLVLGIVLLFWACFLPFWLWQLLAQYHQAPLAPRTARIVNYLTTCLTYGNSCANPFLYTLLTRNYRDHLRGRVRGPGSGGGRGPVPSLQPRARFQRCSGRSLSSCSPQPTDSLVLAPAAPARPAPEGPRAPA

[2] = target: T1, urotensin II receptor (hUT); assay: radioligand binding assay; remark: listed apart in the source

Ki [1] [nM]	Ki [2] [nM]	SMILES
4	–	O=C(NC1CCN(Cc2ccc(OC3CCNCC3)c(Br)c2)CC1)c1csc2ccccc12 [KR-36996, N-(1-(3-bromo-4-(piperidin-4-yloxy)benzyl)piperidin-4-yl)benzo[b]thiophene-3-carboxamide]
–	31	CN(C(=O)CN1C(=O)COc2cc(Cl)c(Cl)cc21)[C@@H](CN1CCOCC1)c1ccc(-c2ccc(C(=O)O)cc2)cc1 [GSK-1440115, 4′-[(1R)-1-[[(6,7-dichloro-3-oxo-2,3-dihydro-4H-1,4-benzoxazin-4-yl)acetyl](methyl)amino]-2-(4-morpholinyl)ethyl]-4-biphenylcarboxylic acid trifluoroacetate]
